For one data set, the target named is T1, 5-HT3 receptors (Mus musculus, UniProt P23979).
T1 construct: a group of 5 male or female CD-1 (Crl.) mice; from tissue
T1 sequence (P23979 24-489): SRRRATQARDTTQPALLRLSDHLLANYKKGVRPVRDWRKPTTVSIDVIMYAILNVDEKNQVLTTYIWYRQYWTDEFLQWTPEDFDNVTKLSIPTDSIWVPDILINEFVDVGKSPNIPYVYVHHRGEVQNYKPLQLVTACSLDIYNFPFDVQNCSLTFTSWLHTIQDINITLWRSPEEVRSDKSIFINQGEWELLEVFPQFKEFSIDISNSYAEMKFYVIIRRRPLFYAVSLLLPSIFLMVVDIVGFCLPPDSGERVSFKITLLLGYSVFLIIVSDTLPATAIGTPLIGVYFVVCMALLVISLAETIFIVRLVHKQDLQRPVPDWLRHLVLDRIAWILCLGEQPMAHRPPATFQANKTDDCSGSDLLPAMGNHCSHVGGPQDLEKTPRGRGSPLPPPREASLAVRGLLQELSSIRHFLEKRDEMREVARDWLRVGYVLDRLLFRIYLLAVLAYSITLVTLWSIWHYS
As to the kind of experiment: Bezold-Jarisch assay in vivo (inhibition of serotonin induced bradycardia). The settings on record: 30 mg/kg orally, CD-1 mice; 5-HT (0.5 mg/kg IV)-induced bradycardia recorded sixty minutes later, pentobarbital-anesthetized. As to the method: Bezold-Jarisch Assay in vivo. […] Arch. Int. Pharmacodyn. 277: 235-252, 1985]. Test substances and vehicle [2% Tween 80] were each administered orally (30 mg/kg) to a group of 5 male or female CD-1 (Crl.) mice each weighing 24±2 g. A dosing volume of 10 mL/kg was used. Sixty minutes later, 5-HT (0.5 mg/kg IV)-induced bradycardia was recorded in pentobarbital (80 mg/kg IP, given 10 minutes before 5-HT)-anesthetized animals.

As to `Cc1nccn1CCCNC(=O)c1cccc2oc(-c3ccccc3)nc12`, the melting point – broadly, the temperature, or range, at which the solid turns liquid – is 145 to 148 °C. Still for that read-out and setting: next, `CN1CCC(NC(=O)c2cc(Cl)cc3oc(-c4ccccc4)nc23)CC1`: 170 to 172 °C; `O=C(NC1CCNCC1)c1cc(Cl)cc2oc(-c3ccccc3)nc12`: 169 to 171 °C. The same measure, in the same setting: the value for `O=C(NC1CN2CCC1CC2)c1cc(Cl)cc2oc(-c3ccccc3)nc12` (stereo not shown) was 180 to 183 °C. On the same count and under the same terms, the value for `O=C(NC1CN2CCC1CC2)c1cccc2oc(-c3ccc(Cl)cc3)nc12` (stereo not shown) was 194 to 196 °C; that for `CN1C2CCCC1CC(NC(=O)c1cccc3oc(-c4ccc(Cl)cc4)nc13)C2` (stereo not shown) was 185 to 187 °C; that for `COc1ccc(-c2nc3c(C(=O)NC4CN5CCC4CC5)cccc3o2)cc1` (stereo not shown) was 108 to 109 °C. On to `COc1ccc(-c2nc3c(C(=O)NC4CC5CCCC(C4)N5C)cccc3o2)cc1` (stereo not shown), for which the melting point lay within 103 to 105 °C. Same read-out and setting: the value for `CN1C2CCCC1CC(NC(=O)c1cccc3oc(-c4ccc(F)cc4)nc13)C2` (stereo not shown) was 197 to 199 °C; that for `O=C(NC1CN2CCC1CC2)c1cccc2oc(-c3ccc(F)cc3)nc12` (stereo not shown) was 208 to 209 °C.

`Cc1nccn1CCNC(=O)c1cccc2oc(-c3ccccc3)nc12` returned a melting point of 125 to 127 °C.

In turn, `CN1CCC(NC(=O)c2cccc3nc(-c4ccccc4)oc23)CC1` returned a melting point of 209 to 210 °C. Compound `O=C(NC1CCNCC1)c1cccc2nc(-c3ccccc3)oc12` gave a melting point of 191 to 193 °C. On the same count and under the same terms, the value for `O=C(NC1CN2CCC1CC2)c1cccc2nc(-c3ccccc3)oc12` (stereo not shown) was 179 to 180 °C; that for `CN1C2CCC1CC(NC(=O)c1cccc3nc(-c4ccccc4)oc13)C2` (stereo not shown) was 164 to 166 °C. Take `O=C(NC1CN2CCC1CC2)c1cc(Cl)cc2nc(-c3ccccc3)oc12` (stereo not shown): the melting point was 283 to 285 °C. On the same count and under the same terms, next, `CN1C2CCCC1CC(NC(=O)c1cc(Cl)cc3nc(-c4ccccc4)oc13)C2` (stereo not shown): 199 to 201 °C. The compound `O=C(NC1CN2CCC1CC2)c1cccc2nc(-c3ccc(F)cc3)oc12` (stereo not shown) gave a melting point of 185 to 187 °C.

`CN1C2CCCC1CC(NC(=O)c1cccc3nc(-c4ccc(F)cc4)oc13)C2` (stereo not shown): the melting point is 229 to 231 °C. The compound `COc1ccc(-c2nc3cccc(C(=O)NC4CN5CCC4CC5)c3o2)cc1` (stereo not shown) showed a melting point of 166 to 167 °C. Still for that read-out and setting: the value for `COc1ccc(-c2nc3cccc(C(=O)NC4CC5CCCC(C4)N5C)c3o2)cc1` (stereo not shown) was 160 to 162 °C; that for `O=C(NC1CN2CCC1CC2)c1cccc2nc(-c3ccc(Cl)cc3)oc12` (stereo not shown) was 181 to 183 °C. In the case of `CN1C2CCCC1CC(NC(=O)c1cccc3nc(-c4ccc(Cl)cc4)oc13)C2` (stereo not shown), the melting point was 193 to 196 °C. `CN1CCC(NC(=O)c2cccc3oc(-c4ccccc4)nc23)CC1` yielded a melting point of 126 to 128 °C. Turning to `CN1C2CCCC1CC(NC(=O)c1cccc3oc(-c4ccccc4)nc13)C2` (stereo not shown), the melting point was 182 to 185 °C. The compound `CN1C2CCC1CC(NC(=O)c1cccc3oc(-c4ccccc4)nc13)C2` (stereo not shown) registered a melting point of 149 to 151 °C. With `O=C(NC1CCNCC1)c1cccc2oc(-c3ccccc3)nc12`, the melting point fell in the range of 99 to 102 °C.

Take `O=C(NC1CN2CCC1CC2)c1cccc2oc(-c3ccccc3)nc12` (stereo not shown): the melting point fell in the range of 77 to 80 °C.

`CN1C2CCCC1CC(NC(=O)c1cc(Cl)cc3oc(-c4ccccc4)nc13)C2` (stereo not shown): the % Inhibition in vivo (as a rule, the percentage by which the read-out fell short of the control) at 5-HT3 receptors is listed as 40%. `COc1ccccc1-c1nc2c(C(=O)NC3CN4CCC3CC4)cccc2o1` (stereo not shown): the “% Inhibition in vivo” value at 5-HT3 receptors is given as 88%.

In the case of `O=C(NC1CN2CCC1CC2)c1cccc2oc(-c3ccsc3)nc12` (stereo not shown), the “% Inhibition in vivo” value on 5-HT3 receptors is recorded as 62%.

The values are drawn from patent publication US7781430B2, “Benzoxazole carboxamides for treating CINV and IBS-D” (Albany Molecular Research, Inc., priority 2005, dated 2010).
